Data on one molecule can be found in patent US20220349876A1, “USE OF DKK1 INHIBITOR IN PREVENTION AND/OR TREATMENT OF TUMOR CACHEXIA AND DISEASES ASSOCIATED WITH DIABETES” (SHANGHAI DONGTSU BIOSCIENCES CO., LTD., priority 2019, published 2022).

Molecules are shown by their SMILES. Entries after “also recorded” stand apart in the source; their conditions may differ.

One assay has as its system HUVEC cells. Briefly: γH2AX DNA damage response in HUVEC cells (Western blot). It is filed as cell-based. The procedure: (2) The transfection system of a 3.5 cm petri dish was prepared as follows: 1 μl of siRNA Oligo/Red (concentration of the original solution was 20 μM) was added to an EP tube containing 250 μl of pure Opti-MEM and mixed, and 1.5 μl of RNAiMAX (transfection Reagent) was added to the flow tube containing 250 μl of pure Opti-MEM and mixed, and then all the liquid in the EP tube was added to the flow tube and mixed, and allowed to stand at room temperature for 15 min.
(3) The prepared transfection system was added to a 3.5 cm culture dish, and the cells were cultured for 24-48 h, then the samples were collected and the total cell protein was extracted, and the knockdown effect of the gene was identified by Western Blotting.
(3) Add 150 μl of total protein lysate to each cell sample to make the lysate fully contact with the cells, scrape off the cell lysate with a scraper, collect it into a pre-cooled EP tube, and take an ice bath for 15 min.
(§1) Protein electrophoresis gels are double-layered gels, including an upper stacking gel and a lower separating gel. The concentration of the stacking gel is 5%, and the concentration of the separating gel is determined according to the molecular weight of the target protein. In this study, large molecular weight proteins (LRP5/6, β-catenin, β-arrestin1/2) used 8%-5% double-layer gel, and small molecular weight proteins (γH2AX, p53, p21, Bcl-2, Bax, Cleaved Caspase-3) used 12%-5% double-layer gel. In addition, the number of wells (10 wells or 15 wells) and thickness (1 mm or 1.5 mm) of the preparation gel were selected according to the number and volume of protein samples loaded. The gel formulation is shown in the experimental material section, and the preparation steps are as follows: […]

The test system of a further assay is wild-type mice heart. The experiment in a line: Local injection of Dkk1 protein into the heart combined with MDC or BIM-46187. It is filed as in vivo, mouse. The procedure: In the experiment of local injection of Dkk1 purified protein into the heart combined with MDC intervention, 10-week-old wild-type male mice were selected, the left chest was depilated, and intraperitoneal injection of MDC (diluted in sterile PBS, 10 mg/kg) or the corresponding volume of DMSO (diluted in sterile PBS) and injected at the same time every day thereafter. After 1 h of MDC intervention, cardiac Dkk1 protein injection was performed. The mice were given continuous inhalation anesthesia with 1% isoflurane and oxygenated with a ventilator, and then the fourth intercostal space near the sternum was opened to expose the heart. Using a 200 μl microsyringe, Dkk1 (10 μg of Dkk1 per heart, dissolved in 30 μl PBS) or an equal volume of PBS was injected locally at three sites in the heart. Of these, two sites are on the border around the left ventricle, and one site enters the myocardium of the left ventricle. After the injection, the wound was sutured, the anesthesia was removed, and the mice were awake. After MDC was continuously intervened for 2 days, the mice were anesthetized and the materials were collected.
In addition to injecting Dkk1 protein alone into the heart, we also need to perform experiments of local injection of Dkk1 combined with BIM-46187 into mouse hearts. According to the experimental grouping, it was divided into cardiac injections of four different solutions, including PBS, Dkk1, BIM-46187, and a mixture of Dkk1 and BIM-46187. The dosage of Dkk1 per heart is 10 μg, and the dosage of BIM-46187 is 2.4 ng, diluted with 30 μl PBS and then injected into the heart. The specific operation steps are the same as above. After the injection, the wound was sutured, the anesthesia was removed, and the mice were awake. Two days after the injection, the mice were anesthetized and the materials were collected.

For assay [1], the system named is CT26 tumor-bearing mice. The experiment in a line: Survival of CT26 tumor-bearing mice (Kaplan-Meier). The following applies: mouse, in vivo.
A further assay relates to LRP6 and Kremen2. Briefly: Intramuscular injection of Dkk1, Western blot of membrane LRP6 and Kremen2. It is filed as in vivo, mouse. The following applies: simultaneous injection with Dkk1. The procedure:
Wild-type mice and β-arrestin2+/−KO mice were injected into the left quadriceps (0.25 mg/kg) and an equal volume of PBS was injected into the right leg as controls. MDC (10 mg/kg), IGFBP-4/H95P (1.7 mg/kg) or PBS were injected in combination with Dkk1 as a control to observe the effects of drugs on Dkk1-induced signal transduction. After 48 hours, the mice were sacrificed, and the left and right quadriceps were taken to measure the […].
Membrane proteins were extracted according to the instructions of Membrane Protein Extraction Kit (Sangon Biotech, China). Western blot analysis omitted. Antibodies for WB analysis were purchased from Cell Signaling Technology and Proteintech.
On the technique in general: A western blot detects proteins with antibodies after separation by electrophoresis.

The subject of assay [2] is STZ-induced diabetic mice. Briefly: STZ-induced type 1 diabetes mouse model with insulin or MDC rescue. It is filed as in vivo. The procedure: STZ-induced diabetes is a chemical modeling method for diabetes. Its full name is streptozotocin, which is a broad-spectrum antibiotic isolated from achromatic streptomycin. It can selectively damage islet 13 cells in a short period of time, causing 13 cell necrosis, resulting in varying degrees of blood insulin drop and blood sugar rise, resulting in insulin-dependent type 1 diabetes mellitus. […] Modelling criteria are non-fasting blood glucose values above 13.8 mM (250 mg/dl). The modeling steps are as follows: (4) According to the body weight, mice in the model group were injected intraperitoneally with 2% STZ-citric acid solution (160 mg/kg), and the mice in the control group were intraperitoneally injected with the corresponding volume of citrate buffer. 2 h after the injection, the mice were fed back. […] Specific steps are as follows: (3) According to the body weight, the insulin rescue group was subcutaneously injected with diluted insulin (1 U/kg/day), once a day at the same time for 7 consecutive days, and the control group was given a corresponding volume of normal saline. […] Body weight and random blood glucose were measured at different time points after injection. […] (1) Sample preparation: Store the freshly obtained mouse blood in an EDTA anticoagulation tube, stand at room temperature for 10 min, centrifuge at 1000 g for 15 min, and collect the supernatant, namely plasma. If it cannot be detected immediately, it should be subpackaged and stored at −80° C. to avoid repeated freezing. If precipitation occurs during storage, it should be fully thawed at room temperature before use, and centrifuged again.

In assay [3] the test system is CT26 tumor-bearing mice. The experiment in a line: Tumor cachexia in CT26 tumor-bearing mice: tumor-free body weight, muscle weight, muscle membrane proteins. It is filed as in vivo, mouse.
The test system of another assay is β-arrestin1/2. Briefly: β-arrestin1/2 translocation in HUVEC cells (Western blot). It is filed as cell-based. As to conditions: MDC pretreatment. The procedure: (5) Add 100 μl (cell) or 200 μl (tissue) A solution to each sample, and resuspend the cell pellet with a pipette to completely disperse the pellet. The tissue pellet should be fully homogenized on ice with a homogenizer, and the ice bath should be used for 15 min.
(10) Add 50 μl (cells) or 100 μl (tissue) B solution to each sample, resuspend the pellet in Vortex at the highest speed for 10 s, ice bath for 10 min, and repeat twice to fully extract membrane proteins.
as §1

Another assay has as its system Leptin−/− mice. The experiment in a line: Leptin−/− mice injected with D-glucose, MDC rescue. It is filed as in vivo, mouse. As to conditions: 6-week-old Leptin−/− mice, D-glucose every 2 h for 24 h. The procedure: The in vivo rescue experiment of MDC in Leptin^−/− mice was performed by pre-intraperitoneal injection of MDC in 6-week-old Leptin^−/− mice (diluted in sterile PBS, 10 mg/kg) or the corresponding volume of DMSO (diluted in sterile PBS). The injected dose of MDC in Leptin^−/− mice should be calculated based on the body weight of 6-week-old littermates of WT mice. After 1 h of MDC intervention, 50% D-glucose or the corresponding volume of PBS was injected intraperitoneally. The procedure of injecting D-glucose into Leptin^−/− mice was as follows: 12 injections were performed every 2 hours during the 24-hour period, and the injection dose of D-glucose was fixed at the first dose (2 g/kg).

Consider `CN(C)c1cccc2c(S(=O)(=O)NCCCCCN)cccc12` [MDC], for which, in the assay with HUVEC cells (Dkk1 then H2O2 50 μM), the “γH2AX signaling enhanced by H2O2 in the presence of Dkk1” value was “significantly attenuated”. Besides, the “H2O2-induced γH2AX activation” value with HUVEC cells (H2O2 50 μM, without Dkk1) is listed as “does not prevent H2O2-induced γH2AX activation”. The “γH2AX response by the substance itself” value in the assay with HUVEC cells (no Dkk1, no H2O2) is given as “does not elicit γH2AX responses”. In addition, the “Dkk1-induced γH2AX activation” value in the assay on HUVEC cells (pretreatment with MDC or LRP6N protein) is recorded as “attenuated; also recorded: prevents”. The “Dkk1-induced cardiac β-arrestin1/2 translocation” value with wild-type mice heart (Dkk1 intracardiac injection with MDC or BIM-46187) is “inhibited”. The “Dkk1-induced cardiac changes (LRP5/6, γH2AX, p53, p21)” value in the assay on wild-type mice heart (Dkk1 intracardiac injection with MDC pretreatment or combined with BIM-46187) is on record as “reversed”. Further, the “death / shortened survival of tumor-bearing mice induced by Dkk1 injection” value in the assay on CT26 tumor-bearing mice [1] is “prolong the shortening of survival in tumor-bearing mice caused by Dkk1; also recorded: inhibit the rapid death of tumor-bearing mice induced by Dkk1 injection”. Also, the “survival of tumor-bearing mice” value with CT26 tumor-bearing mice [1] (ip) is “prolongs the survival of CT26 mice”. In the assay on LRP6 and Kremen2, the “Dkk1-induced endocytosis / downregulation of membrane LRP6 and Kremen2” value was “prevents this phenomenon”. Besides, in assay [2] (STZ diabetic mice), the “blood 8-OHdG (ELISA)” value is given as “prevented the elevation of 8-OHdG”, the blood glucose concentration result is given as “without altering blood glucose concentrations; also recorded: do not alter blood glucose levels” and the “body weight loss of diabetic mice” value is listed as “inhibits; also recorded: suppressed”. Further, in assay [2] (STZ diabetic mice, heart), the “cardiac p53, p21, Bax/Bcl-2 and Cleaved Caspase-3” value is “inhibits the upregulation of p53, p21, Bax/Bcl-2 and Cleaved Caspase-3”; the “cardiac γH2AX” value is “γH2AX activation in diabetic hearts can also be inhibited”; the “damage to myocardial structure (HE staining)” value was “prevented”; the “translocation of cardiac β-arrestin1/2 in diabetic hearts” value is “prevented”. Further, in assay [2] (STZ diabetic mice, heart, MDC), the “overall LRP5/6 and nuclear or overall β-catenin expression levels” value is on record as “remain unchanged”. The “LRP5/6 on the cardiac membrane” value in assay [2] (STZ diabetic mice, heart, Western blot) was “STZ-induced downregulation of LRP5/6 in diabetic cardiac membranes can be inhibited”. Also, the “translocation of insulin receptors on the cardiac membrane or in the plasma” value in assay [2] (substance alone (FIG. 19G)) was “does not induce translocation of insulin receptors”. In the assay with CT26 tumor-bearing mice [3], the “loss of body weight and muscle weight” value was “reverse tumor-induced loss of tumor-free body weight and muscle atrophy; also recorded: completely prevents the loss of body weight and muscle weight”. Besides, the “downregulation of LRP6 and Kremen2 on membrane in muscle” value in the assay on CT26 tumor-bearing mice [3] (Western blot) is “reverses downregulation of LRP6 and Kremen2 on membrane”. Moreover, the “Dkk1-induced translocation of β-arrestin1/2” value with β-arrestin1/2 was “prevent the above translocation changes of β-arrestin1/2; also recorded: prevents the translocation of β-arrestin1/2 into cells”. Moreover, in the assay on Leptin−/− mice, the “down-regulation of LRP5/6 on cardiac membranes induced by glucose injection” value is on record as “significantly reversed the down-regulation of LRP5/6 on cardiac membranes” and the “up-regulation of molecular markers of injury induced by glucose injection” value is on record as “significantly reversed”.
